The text below walks through data of ChEMBL document CHEMBL5465560, “Selectivity Literature for EUbOPEN Chemogenomic Library” (2024).

Each structure is given as a SMILES string.

The target in test [1] is Protein-tyrosine kinase 2-beta (Homo sapiens) (UniProt Q14289). Kind of test: Selectivity interaction (KinomeScan (DiscoverX)) EUB0001619a PTK2B. Particulars: at 1 µM.
The target in test [2] is T1, Protein kinase C iota type (Homo sapiens) (UniProt P41743).
T1 sequence (whole entry): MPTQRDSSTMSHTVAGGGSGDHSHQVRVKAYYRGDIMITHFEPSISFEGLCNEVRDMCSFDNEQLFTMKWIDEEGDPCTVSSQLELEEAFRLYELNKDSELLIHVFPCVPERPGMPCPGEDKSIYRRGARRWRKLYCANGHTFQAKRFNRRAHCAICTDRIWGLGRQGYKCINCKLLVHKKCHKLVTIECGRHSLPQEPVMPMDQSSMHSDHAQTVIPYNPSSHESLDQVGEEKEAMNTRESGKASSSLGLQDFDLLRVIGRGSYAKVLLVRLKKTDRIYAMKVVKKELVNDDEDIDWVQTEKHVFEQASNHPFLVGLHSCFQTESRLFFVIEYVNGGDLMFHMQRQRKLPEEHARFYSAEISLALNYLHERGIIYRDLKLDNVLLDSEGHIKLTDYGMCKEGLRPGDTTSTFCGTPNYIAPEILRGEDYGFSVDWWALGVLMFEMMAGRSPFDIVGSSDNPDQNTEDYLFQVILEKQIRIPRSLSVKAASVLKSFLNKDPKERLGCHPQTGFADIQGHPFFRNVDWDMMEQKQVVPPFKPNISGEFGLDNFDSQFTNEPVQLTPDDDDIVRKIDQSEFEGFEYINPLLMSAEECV
Kind of test: Selectivity interaction (KinomeScan (DiscoverX)) EUB0001619a PRKCI. To be noted: at 1 µM.

Test [3] deals with Casein kinase I isoform delta (Homo sapiens, UniProt P48730). To be noted: at 10 µM.
Test [4] concerns the target T2, Ephrin type-A receptor 1 (Homo sapiens) (UniProt P21709).
T2 sequence (whole entry): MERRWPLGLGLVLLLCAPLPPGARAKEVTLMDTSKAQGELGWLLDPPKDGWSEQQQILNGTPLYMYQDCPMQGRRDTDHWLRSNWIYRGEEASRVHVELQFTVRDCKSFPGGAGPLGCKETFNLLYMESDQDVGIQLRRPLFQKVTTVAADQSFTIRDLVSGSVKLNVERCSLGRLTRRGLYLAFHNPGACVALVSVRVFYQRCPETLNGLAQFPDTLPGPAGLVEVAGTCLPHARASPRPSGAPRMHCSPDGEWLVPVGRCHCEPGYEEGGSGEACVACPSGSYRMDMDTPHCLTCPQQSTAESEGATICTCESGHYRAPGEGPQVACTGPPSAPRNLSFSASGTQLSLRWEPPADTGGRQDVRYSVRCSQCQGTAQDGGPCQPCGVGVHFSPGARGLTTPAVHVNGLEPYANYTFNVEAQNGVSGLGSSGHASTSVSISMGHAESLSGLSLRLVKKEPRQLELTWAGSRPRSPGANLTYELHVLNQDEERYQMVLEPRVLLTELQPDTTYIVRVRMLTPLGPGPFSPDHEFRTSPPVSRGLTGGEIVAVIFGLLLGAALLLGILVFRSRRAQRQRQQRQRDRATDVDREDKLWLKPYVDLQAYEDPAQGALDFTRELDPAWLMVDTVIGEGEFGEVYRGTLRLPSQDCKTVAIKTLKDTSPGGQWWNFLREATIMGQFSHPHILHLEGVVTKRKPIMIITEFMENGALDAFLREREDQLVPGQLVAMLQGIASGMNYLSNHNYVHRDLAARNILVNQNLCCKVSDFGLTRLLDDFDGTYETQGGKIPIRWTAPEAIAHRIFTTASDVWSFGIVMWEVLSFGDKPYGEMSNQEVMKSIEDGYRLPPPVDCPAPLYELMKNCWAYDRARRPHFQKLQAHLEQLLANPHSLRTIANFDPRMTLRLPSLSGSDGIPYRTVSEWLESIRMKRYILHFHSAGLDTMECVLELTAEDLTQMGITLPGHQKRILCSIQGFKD
Kind of test: Selectivity interaction (SelectScreen profiling (Invitrogen)) EUB0000607a EPHA1. Particulars: at 2 µM.

Test [5] has as its target Serine/threonine-protein kinase WNK3 (Homo sapiens) (UniProt Q9BYP7). Description: Selectivity interaction (ProQinase) EUB0000171b WNK3.
Test [6] concerns Epidermal growth factor receptor (Homo sapiens), P00533 [UNDEFINED MUTATION]. Kind of test: Selectivity interaction (KinomeScan (DiscoverX)) EUB0001049a EGFR. Particulars: at 1 µM.
The target of test [7] is T3, Ephrin type-A receptor 8 (Homo sapiens) (UniProt P29322).
T3 sequence (whole entry): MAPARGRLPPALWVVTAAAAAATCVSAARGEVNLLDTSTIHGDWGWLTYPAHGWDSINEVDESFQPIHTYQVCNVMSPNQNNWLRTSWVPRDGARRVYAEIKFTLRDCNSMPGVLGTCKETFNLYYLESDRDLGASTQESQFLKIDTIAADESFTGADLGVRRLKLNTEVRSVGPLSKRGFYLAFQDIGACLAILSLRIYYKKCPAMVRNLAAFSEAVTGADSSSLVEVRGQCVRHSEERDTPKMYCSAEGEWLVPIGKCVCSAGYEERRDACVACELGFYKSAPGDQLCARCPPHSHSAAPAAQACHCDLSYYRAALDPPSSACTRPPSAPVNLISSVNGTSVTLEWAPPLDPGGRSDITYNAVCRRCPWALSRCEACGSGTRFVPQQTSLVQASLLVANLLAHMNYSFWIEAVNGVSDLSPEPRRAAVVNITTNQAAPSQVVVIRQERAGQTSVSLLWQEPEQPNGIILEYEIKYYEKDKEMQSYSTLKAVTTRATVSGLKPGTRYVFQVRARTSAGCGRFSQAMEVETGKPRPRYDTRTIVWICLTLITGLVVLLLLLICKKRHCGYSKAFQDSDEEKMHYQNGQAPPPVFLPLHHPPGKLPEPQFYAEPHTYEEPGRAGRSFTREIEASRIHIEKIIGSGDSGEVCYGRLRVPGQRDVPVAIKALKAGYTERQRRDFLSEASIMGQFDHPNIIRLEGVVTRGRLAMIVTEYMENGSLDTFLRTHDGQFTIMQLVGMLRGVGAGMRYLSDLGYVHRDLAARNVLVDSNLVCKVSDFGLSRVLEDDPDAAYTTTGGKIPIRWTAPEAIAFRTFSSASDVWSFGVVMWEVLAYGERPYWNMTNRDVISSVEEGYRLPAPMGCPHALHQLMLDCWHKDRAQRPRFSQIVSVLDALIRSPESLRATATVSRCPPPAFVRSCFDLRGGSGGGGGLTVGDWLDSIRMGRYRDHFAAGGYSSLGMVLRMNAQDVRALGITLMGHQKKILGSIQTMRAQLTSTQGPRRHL
Description: Selectivity interaction (Upstate Kinase Profiler service (Millipore)) EUB0000056c EPHA8. Particulars: at 1 µM.

In test [8] the target is Muscarinic acetylcholine receptor M3 (Homo sapiens, UniProt P20309). Description: Selectivity interaction (GPCR panel (PDSP screen)) EUB0001079a CHRM3. To be noted: at 10 µM.
In test [9] the target is Serine/threonine-protein kinase 32A (Homo sapiens) (UniProt Q8WU08). Description: Selectivity interaction (KinomeScan (DiscoverX)) EUB0001079a STK32A. Particulars: at 1 µM.
Serine/threonine-protein kinase 32A (Homo sapiens), sequence (Q8WU08 whole entry): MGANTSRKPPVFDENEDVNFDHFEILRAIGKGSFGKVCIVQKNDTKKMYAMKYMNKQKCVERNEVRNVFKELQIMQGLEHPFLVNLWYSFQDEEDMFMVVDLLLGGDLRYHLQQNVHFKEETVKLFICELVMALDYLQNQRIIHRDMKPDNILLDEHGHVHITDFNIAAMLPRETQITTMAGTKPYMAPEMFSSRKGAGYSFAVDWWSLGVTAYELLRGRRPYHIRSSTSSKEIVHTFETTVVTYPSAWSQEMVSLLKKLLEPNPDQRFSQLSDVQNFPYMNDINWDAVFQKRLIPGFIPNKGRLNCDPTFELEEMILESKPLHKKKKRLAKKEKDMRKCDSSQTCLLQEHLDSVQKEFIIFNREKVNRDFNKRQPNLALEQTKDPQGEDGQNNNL

Serine/threonine-protein kinase WNK3 (Homo sapiens), sequence (Q9BYP7 whole entry): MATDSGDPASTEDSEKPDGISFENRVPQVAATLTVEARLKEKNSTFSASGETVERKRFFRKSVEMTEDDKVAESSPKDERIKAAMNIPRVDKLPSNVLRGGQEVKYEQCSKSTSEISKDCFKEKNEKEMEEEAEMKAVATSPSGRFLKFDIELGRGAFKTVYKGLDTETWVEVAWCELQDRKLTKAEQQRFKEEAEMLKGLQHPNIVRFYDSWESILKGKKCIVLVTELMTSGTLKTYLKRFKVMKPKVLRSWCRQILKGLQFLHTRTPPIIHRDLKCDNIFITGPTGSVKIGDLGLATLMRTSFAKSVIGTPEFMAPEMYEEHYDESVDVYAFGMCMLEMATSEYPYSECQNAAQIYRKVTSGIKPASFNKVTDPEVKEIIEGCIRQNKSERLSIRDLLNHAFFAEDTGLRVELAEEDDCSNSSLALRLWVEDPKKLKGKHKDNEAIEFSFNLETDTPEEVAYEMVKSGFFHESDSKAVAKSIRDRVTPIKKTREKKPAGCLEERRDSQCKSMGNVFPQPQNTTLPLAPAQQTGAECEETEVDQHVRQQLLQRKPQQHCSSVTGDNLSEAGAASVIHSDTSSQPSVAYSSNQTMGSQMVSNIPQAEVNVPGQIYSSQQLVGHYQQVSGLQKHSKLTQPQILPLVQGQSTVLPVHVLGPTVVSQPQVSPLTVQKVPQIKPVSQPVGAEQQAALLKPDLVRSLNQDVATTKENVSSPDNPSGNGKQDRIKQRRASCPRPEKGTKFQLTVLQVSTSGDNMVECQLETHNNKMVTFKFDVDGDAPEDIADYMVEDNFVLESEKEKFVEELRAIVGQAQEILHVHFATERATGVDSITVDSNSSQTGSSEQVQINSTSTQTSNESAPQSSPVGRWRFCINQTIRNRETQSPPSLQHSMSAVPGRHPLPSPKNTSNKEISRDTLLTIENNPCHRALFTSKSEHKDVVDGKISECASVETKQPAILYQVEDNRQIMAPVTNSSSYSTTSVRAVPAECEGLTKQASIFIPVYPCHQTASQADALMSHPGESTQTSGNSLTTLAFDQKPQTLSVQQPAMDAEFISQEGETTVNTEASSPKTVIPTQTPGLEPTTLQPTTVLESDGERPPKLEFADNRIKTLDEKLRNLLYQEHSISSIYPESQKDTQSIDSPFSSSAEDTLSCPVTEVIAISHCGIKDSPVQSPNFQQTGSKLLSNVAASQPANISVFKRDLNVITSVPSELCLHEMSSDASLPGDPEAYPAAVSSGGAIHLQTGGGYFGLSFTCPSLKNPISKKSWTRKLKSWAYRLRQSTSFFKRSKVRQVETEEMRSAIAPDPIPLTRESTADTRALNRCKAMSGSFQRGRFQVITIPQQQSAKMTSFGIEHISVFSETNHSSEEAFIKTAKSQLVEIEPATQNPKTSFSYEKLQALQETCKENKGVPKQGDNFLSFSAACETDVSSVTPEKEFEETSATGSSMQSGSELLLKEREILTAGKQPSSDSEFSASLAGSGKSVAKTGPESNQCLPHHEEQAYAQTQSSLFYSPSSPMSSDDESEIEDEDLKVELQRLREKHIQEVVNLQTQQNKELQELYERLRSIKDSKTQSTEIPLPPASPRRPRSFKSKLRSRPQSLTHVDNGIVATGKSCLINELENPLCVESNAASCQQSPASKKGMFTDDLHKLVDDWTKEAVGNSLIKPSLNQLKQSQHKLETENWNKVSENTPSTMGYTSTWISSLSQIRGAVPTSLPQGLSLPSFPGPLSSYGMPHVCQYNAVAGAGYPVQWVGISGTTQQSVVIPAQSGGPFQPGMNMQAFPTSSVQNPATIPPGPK
Muscarinic acetylcholine receptor M3, sequence (P20309 whole entry, looked up): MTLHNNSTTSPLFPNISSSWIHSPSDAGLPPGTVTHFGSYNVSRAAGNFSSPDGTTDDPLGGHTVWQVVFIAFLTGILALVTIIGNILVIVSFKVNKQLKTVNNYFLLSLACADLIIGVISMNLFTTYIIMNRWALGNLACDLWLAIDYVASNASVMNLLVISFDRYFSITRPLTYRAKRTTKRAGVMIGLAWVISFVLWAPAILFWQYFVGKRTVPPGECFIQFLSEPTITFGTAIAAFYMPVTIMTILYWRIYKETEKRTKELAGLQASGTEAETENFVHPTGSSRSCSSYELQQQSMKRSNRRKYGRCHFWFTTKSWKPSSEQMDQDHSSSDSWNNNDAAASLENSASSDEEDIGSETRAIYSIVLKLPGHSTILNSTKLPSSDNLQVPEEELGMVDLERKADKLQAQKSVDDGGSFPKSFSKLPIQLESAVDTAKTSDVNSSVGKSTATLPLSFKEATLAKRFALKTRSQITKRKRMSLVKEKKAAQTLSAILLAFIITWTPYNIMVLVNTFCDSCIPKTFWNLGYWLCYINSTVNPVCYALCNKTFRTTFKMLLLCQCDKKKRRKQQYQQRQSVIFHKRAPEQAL
Protein-tyrosine kinase 2-beta (Homo sapiens), sequence (Q14289 whole entry, looked up): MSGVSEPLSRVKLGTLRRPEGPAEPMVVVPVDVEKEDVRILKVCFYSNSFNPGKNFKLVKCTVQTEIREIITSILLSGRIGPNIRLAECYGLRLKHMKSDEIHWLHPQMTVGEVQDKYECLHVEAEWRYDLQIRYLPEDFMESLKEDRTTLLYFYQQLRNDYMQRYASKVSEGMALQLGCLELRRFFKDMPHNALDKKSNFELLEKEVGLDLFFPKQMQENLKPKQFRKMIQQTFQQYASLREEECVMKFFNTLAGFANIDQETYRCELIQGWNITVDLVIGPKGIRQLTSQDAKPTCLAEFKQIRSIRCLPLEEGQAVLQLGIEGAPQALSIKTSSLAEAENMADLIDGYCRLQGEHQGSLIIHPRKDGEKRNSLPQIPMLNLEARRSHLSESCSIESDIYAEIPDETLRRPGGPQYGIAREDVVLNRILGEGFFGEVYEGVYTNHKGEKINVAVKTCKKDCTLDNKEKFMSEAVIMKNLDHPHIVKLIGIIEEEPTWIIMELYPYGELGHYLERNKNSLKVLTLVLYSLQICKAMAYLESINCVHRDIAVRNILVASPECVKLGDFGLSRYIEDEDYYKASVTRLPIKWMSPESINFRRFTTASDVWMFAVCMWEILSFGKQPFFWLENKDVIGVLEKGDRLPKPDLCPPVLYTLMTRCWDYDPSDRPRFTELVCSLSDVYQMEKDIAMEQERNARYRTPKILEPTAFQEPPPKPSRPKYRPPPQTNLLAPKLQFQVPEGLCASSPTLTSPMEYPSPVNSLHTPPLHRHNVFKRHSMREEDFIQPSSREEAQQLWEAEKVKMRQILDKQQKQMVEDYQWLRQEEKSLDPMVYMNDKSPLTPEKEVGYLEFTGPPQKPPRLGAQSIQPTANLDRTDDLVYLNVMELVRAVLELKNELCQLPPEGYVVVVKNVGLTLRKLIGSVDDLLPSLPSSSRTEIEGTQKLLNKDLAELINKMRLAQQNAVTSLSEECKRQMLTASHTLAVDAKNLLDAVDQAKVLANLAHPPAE
Epidermal growth factor receptor (Homo sapiens), P00533 [UNDEFINED MUTATION], sequence (P00533 whole entry, looked up, change not shown): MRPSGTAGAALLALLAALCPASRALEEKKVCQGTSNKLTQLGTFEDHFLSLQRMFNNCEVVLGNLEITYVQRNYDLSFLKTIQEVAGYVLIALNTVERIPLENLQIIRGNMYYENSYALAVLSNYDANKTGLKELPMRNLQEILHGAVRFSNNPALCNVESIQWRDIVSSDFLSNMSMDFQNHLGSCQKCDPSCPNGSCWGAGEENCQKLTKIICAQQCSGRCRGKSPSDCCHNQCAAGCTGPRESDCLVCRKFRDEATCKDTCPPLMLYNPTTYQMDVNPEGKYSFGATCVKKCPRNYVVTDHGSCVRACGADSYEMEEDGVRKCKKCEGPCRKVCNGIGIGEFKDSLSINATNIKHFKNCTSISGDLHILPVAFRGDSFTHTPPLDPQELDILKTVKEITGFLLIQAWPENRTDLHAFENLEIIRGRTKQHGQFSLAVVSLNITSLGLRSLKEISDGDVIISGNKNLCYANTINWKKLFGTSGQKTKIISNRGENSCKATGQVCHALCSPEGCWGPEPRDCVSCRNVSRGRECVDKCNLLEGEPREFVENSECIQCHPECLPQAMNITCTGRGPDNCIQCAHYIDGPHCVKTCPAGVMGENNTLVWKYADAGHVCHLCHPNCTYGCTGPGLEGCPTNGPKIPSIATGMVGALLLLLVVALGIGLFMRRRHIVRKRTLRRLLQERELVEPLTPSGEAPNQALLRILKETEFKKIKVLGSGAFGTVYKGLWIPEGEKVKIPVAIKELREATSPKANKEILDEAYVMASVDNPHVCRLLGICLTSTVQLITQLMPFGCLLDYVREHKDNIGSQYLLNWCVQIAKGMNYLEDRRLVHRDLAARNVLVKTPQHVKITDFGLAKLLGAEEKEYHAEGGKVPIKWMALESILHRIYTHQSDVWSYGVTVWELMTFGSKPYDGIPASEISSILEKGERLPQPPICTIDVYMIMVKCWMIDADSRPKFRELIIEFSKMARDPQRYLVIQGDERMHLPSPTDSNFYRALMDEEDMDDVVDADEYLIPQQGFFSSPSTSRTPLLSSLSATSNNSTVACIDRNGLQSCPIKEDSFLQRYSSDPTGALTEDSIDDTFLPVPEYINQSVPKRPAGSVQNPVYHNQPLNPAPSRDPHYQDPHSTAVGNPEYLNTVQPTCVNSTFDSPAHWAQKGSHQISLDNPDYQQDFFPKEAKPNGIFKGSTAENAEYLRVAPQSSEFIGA

For `N#Cc1cccc(-c2c[nH]c3ncnc(N4CCOCC4)c23)c1`, the % of control in [1] and in test [2] was 100% each time. `CCN(CC)CCCCNc1ncc2cc(-c3cc(OC)cc(OC)c3)c(NC(=O)NC(C)(C)C)nc2n1`: the % of control in test [3] is 100%. For the compound `CNC(=O)Nc1ccc(-c2nc(N3CC4CCC(C3)O4)c3cnn(C4CCC5(CC4)OCCO5)c3n2)cc1`, the % of inhibition in test [4] was 3%. As to `C=CC(=O)Nc1cccc(C(=O)Nc2ccc(Nc3cc(-c4[nH]c(SC)nc4C)ccn3)cc2)c1`, the % of control came out at 79% in [5] (at 1 µM) and 67% in test [5] (at 5 µM). Take `COc1cc(Nc2nc(C)cc(-c3cnn4nc(OC)ccc34)n2)cc(C(F)(F)F)c1`: the % of control in test [6] is 100%. Turning to `Cc1ccc(-c2ccc3c(ccc4sc5c(c43)NC[C@@H](C)NC5=O)n2)cn1`, the % of inhibition in test [7] is 1%. Turning to `Nc1cnc(N2CCc3cc(S(=O)(=O)Nc4c(F)cc(Cl)cc4F)cc(N4CCCC4=O)c32)nc1` [TP-020n], in [8], the % of inhibition is -18%. The compound further came in with a % of control in test [9] of 80%.
